The source of these data is ChEMBL document CHEMBL5584344, “Discovery of Dehydrogenated Imipridone Derivatives as Activators of Human Caseinolytic Protease P” (J Med Chem, 2024).

The test system of data set [1] is HCT-116. The following applies: Homo sapiens, dose 50-200 nM, time 48.0 hrs.
Data set [2] is described as follows: Acute toxicity in female BALB/c mouse assessed as effect on liver at 200 mg/kg administered via oral gavage measured after 7 days by H and E staining based analysis. It counts as organism-based. The following applies: in vivo, 168 h, time 7 day.
Data set [3] deals with MIA PaCa-2. The data set can be described thus: Induction of apoptosis in human MIA PaCa-2 cells overexpressing MTS-ClpP-OE assessed as viable cells at 100 nM measured after 72 hrs by Annexin V-FITC/propidium iodide staining based flow cytometric analysis (reference value: 83.7%). Type of data set: functional. Particulars: read-out: Activity.
The test system of data set [4] is HCT-116. The following applies: Homo sapiens, dose 100-500 nM, time 48.0 hrs.
Data set [5] has as its system MIA PaCa-2. The data set can be described thus: Induction of apoptosis in human MIA PaCa-2 cells assessed as late apoptotic cells at 100 nM measured after 72 hrs by Annexin V-FITC/propidium iodide staining based flow cytometric analysis (reference value: 3.59%). It counts as functional.
Data set [6] relates to MIA PaCa-2. Nature of the data set: Induction of apoptosis in human MIA PaCa-2 cells assessed as viable cells at 200 nM measured after 72 hrs by Annexin V-FITC/propidium iodide staining based flow cytometric analysis (reference value: 90.0%). It counts as functional. The following applies: read-out: Activity.
Data set [7] can be described thus: Acute toxicity in female BALB/c mouse assessed as effect on heart at 200 mg/kg administered via oral gavage measured after 7 days by H and E staining based analysis. It counts as organism-based. Particulars: in vivo, 168 h, time 7 day.
The test system of data set [8] is MIA PaCa-2. Particulars: Homo sapiens, dose 200.0 nM, time 72.0 hrs.
A short description of data set [9]: Half life in Sprague-Dawley rat at 15 mg/kg, po measured upto 1440 mins by LC-MS analysis. The following applies: in vivo. It counts as ADME, organism-based.
A short description of data set [10]: Acute toxicity in female BALB/c mouse assessed as effect on body weight at 200 mg/kg administered via oral gavage measured upto 7 days. Particulars: in vivo, 168 h, time < 7 day. Type of data set: organism-based.
In data set [11] the test system is MIA PaCa-2. Nature of the data set: Induction of apoptosis in human MIA PaCa-2 cells transfected with empty vector assessed as viable cells at 100 nM measured after 72 hrs by Annexin V-FITC/propidium iodide staining based flow cytometric analysis (reference value: 93.2%). Particulars: read-out: Activity. It counts as functional.
Data set [12] relates to MIA PaCa-2. Nature of the data set: Induction of apoptosis in human MIA PaCa-2 cells transfected with empty vector assessed as late apoptotic cells at 100 nM measured after 72 hrs by Annexin V-FITC/propidium iodide staining based flow cytometric analysis (reference value: 2.81%). Type of data set: functional.
Data set [13] can be described thus: Drug concentration in Sprague-Dawley rat plasma at 15 mg/kg, po measured after 6 hrs by LC-MS analysis. It counts as ADME, organism-based.
For data set [14], the system named is MIA PaCa-2. Nature of the data set: Induction of apoptosis in human MIA PaCa-2 cells transfected with […] assessed as early apoptotic cells at 200 nM measured after 72 hrs by Annexin V-FITC/propidium iodide staining based flow cytometric analysis (reference value: 5.00%). Type of data set: functional.

Activity calls are given as the source filed them. The calls are words filed in the database; no cut-off is given here.

As to `O=c1c2c(n3ccnc3n1Cc1ccc(C(F)(F)F)cc1)CCN(Cc1cccc(Cl)c1)C2`, in the data set on HCT-116 [1], the inhibition entry is “Dose-Dependent Effect”. The Activity result in data set [2] is on record as “Non-Toxic”; in the data set with MIA PaCa-2 [5] it was 5.48%; in data set [7], “Non-Toxic”; in [10], “Non-Toxic”; with MIA PaCa-2 [12], 3.74%; in the data set with MIA PaCa-2 [14] it was 5.2%. The viability at 0.1 µM with MIA PaCa-2 [3] is 33.8%; in the data set with MIA PaCa-2 [11], 92.1%. For the same compound, the inhibition entry in the data set on HCT-116 [4] is “Active”. For the same compound, the viability at 0.2 µM with MIA PaCa-2 [6] stood at 52.3%. Further, the inhibition entry with MIA PaCa-2 [8] is “inactive”. Moreover, in data set [9], the half-life was 5.44 h. The compound further gave a concentration at 6 h in [13] of 495 ng/mL.
